Measured values published in patent publication US9296741B2, “Bromodomain inhibitors” (priority 2012, dated 2016).
pEC50, pKi: −log10 of the molar value.

Tests used:
[1] = test system: breast cancer cell line MX-1; assay: MX-1 cell line proliferation assay; assay type: cell-based, human; settings: Homo sapiens, MX1, 72 h; MX-1 cells, 3-day proliferation, Cell Titer Glo; read-out: Cellular proliferation: EC50
[2] = Human liver microsome stability assay; assay type: in vitro ADME; settings: both sexes, human, microsomes, pH 7.4
[3] = Rat liver microsome stability assay; assay type: in vitro ADME; settings: rat liver microsomes (male Sprague-Dawley), 0.5 μM test compound, 0.25 mg/mL microsomal protein, pH 7.4, 37° C.; read-out: Stability in rat liver microsomes (t1/2 in minutes)
[4] = Mouse liver microsome stability assay; assay type: in vitro ADME; settings: male, CD1, mouse, microsomes, pH 7.4
[5] = molecular target: human BRD4 first bromodomain (BDI_K57-E168) (Homo sapiens (Human), UniProt O60885); assay: TR-FRET bromodomain binding assay, BRD4 first bromodomain
[6] = molecular target: human BRD4 second bromodomain (BDII_E352-M457) (Homo sapiens (Human), UniProt O60885); assay: TR-FRET bromodomain binding assay, BRD4 second bromodomain

| pEC50 [1] | half-life at 0.5 μM [2] | half-life at 0.5 μM [3] | half-life at 0.5 μM [4] | pKi [5] | pKi [6] | Structure (SMILES) |
| --- | --- | --- | --- | --- | --- | --- |
| 7.85 | 26 min | 9 min | 28 min |  |  | CNS(=O)(=O)c1cnc(NC2CCCCC2)c(-c2cn(C)c(=O)c3[nH]ccc23)c1 [Example 97, 6-(cyclohexylamino)-N-methyl-5-(6-methyl-7-oxo-6,7-dihydro-1H-pyrrolo[2,3-c]pyridin-4-yl)pyridine-3-sulfonamide] |
| 6.56 | 17 min | 3 min | 5 min |  |  | CCOC(=O)c1cc2c(-c3cc(N)ccc3Oc3ccccc3)nn(C)c(=O)c2[nH]1 [Example 74, ethyl 4-(5-amino-2-phenoxyphenyl)-6-methyl-7-oxo-6,7-dihydro-1H-pyrrolo[2,3-d]pyridazine-2-carboxylate] |
| 6.23 | 10 min | 4 min | 13 min |  |  | CCNC(=O)Cc1ccc(OCc2ccccc2)c(-c2cn(C)c(=O)c3[nH]ccc23)c1 [Example 46, 2-[4-(benzyloxy)-3-(6-methyl-7-oxo-6,7-dihydro-1H-pyrrolo[2,3-c]pyridin-4-yl)phenyl]-N-ethylacetamide] |
| 6.94 | 12 min | 7 min | 5 min |  |  | CN(C)c1cccc(Oc2ccc(S(C)(=O)=O)cc2-c2cn(C)c(=O)c3[nH]ccc23)c1 [Example 180, 4-{2-[3-(dimethylamino)phenoxy]-5-(methylsulfonyl)phenyl}-6-methyl-1,6-dihydro-7H-pyrrolo[2,3-c]pyridin-7-one] |
| 7.65 | 35 min | 34 min | 54 min |  |  | Cn1cc(-c2cc(CS(C)(=O)=O)ccc2Nc2ccc(F)cc2)c2cc[nH]c2c1=O [Example 335, 4-{2-[(4-fluorophenyl)amino]-5-[(methylsulfonyl)methyl]phenyl}-6-methyl-1,6-dihydro-7H-pyrrolo[2,3-c]pyridin-7-one] |
| 7.33 | 39 min | 8 min | 4 min |  |  | CCCS(=O)(=O)Nc1ccc(OC2CCCOC2)c(-c2cn(C)c(=O)c3[nH]ccc23)c1 (stereo not shown) [Example 106, N-[3-(6-methyl-7-oxo-6,7-dihydro-1H-pyrrolo[2,3-c]pyridin-4-yl)-4-(tetrahydro-2H-pyran-3-yloxy)phenyl]propane-1-sulfonamide] |
| 6.97 | 77 min | 71 min | 60 min |  |  | Cn1cc(-c2cc(NS(=O)(=O)CC(F)(F)F)ccc2OC2CCOCC2)c2cc[nH]c2c1=O [Example 100, 2,2,2-trifluoro-N-[3-(6-methyl-7-oxo-6,7-dihydro-1H-pyrrolo[2,3-c]pyridin-4-yl)-4-(tetrahydro-2H-pyran-4-yloxy)phenyl]ethanesulfonamide] |
| 6.38 | > 120 min | > 120 min | > 120 min |  |  | Cn1cc(-c2cc(S(C)(=O)=O)ccc2Oc2ccc(S(C)(=O)=O)cc2)c2cc[nH]c2c1=O [Example 270, 6-methyl-4-{5-(methylsulfonyl)-2-[4-(methylsulfonyl)phenoxy]phenyl}-1,6-dihydro-7H-pyrrolo[2,3-c]pyridin-7-one] |
| 7.47 | 47 min | 16 min | 37 min |  |  | Cn1cc(-c2cc(NS(=O)(=O)CC(F)(F)F)ccc2OC2CCC(F)(F)CC2)c2cc[nH]c2c1=O [Example 103, N-{4-[(4,4-difluorocyclohexyl)oxy]-3-(6-methyl-7-oxo-6,7-dihydro-1H-pyrrolo[2,3-c]pyridin-4-yl)phenyl}-2,2,2-trifluoroethanesulfonamide] |
| 6.98 | 5 min | 10 min | 4 min |  |  | Cn1cc(-c2cc(S(C)(=O)=O)ccc2Oc2cccc3cnccc23)c2cc[nH]c2c1=O [Example 161, 4-[2-(isoquinolin-5-yloxy)-5-(methylsulfonyl)phenyl]-6-methyl-1,6-dihydro-7H-pyrrolo[2,3-c]pyridin-7-one] |
| 6.63 |  | 2 min | 3 min |  |  | COC(=O)Cc1ccc(OCc2ccccc2)c(-c2cn(C)c(=O)c3[nH]ccc23)c1 [Example 45, methyl [4-(benzyloxy)-3-(6-methyl-7-oxo-6,7-dihydro-1H-pyrrolo[2,3-c]pyridin-4-yl)phenyl]acetate] |
| 7.21 | 36 min | 3 min | 8 min |  |  | CCCS(=O)(=O)Nc1ccc(OC2CCC(F)(F)CC2)c(-c2cn(C)c(=O)c3[nH]ccc23)c1 [Example 102, N-{4-[(4,4-difluorocyclohexyl)oxy]-3-(6-methyl-7-oxo-6,7-dihydro-1H-pyrrolo[2,3-c]pyridin-4-yl)phenyl}propane-1-sulfonamide] |
| 6.55 | 31 min | 18 min | 16 min |  |  | Cn1cc(-c2cc(C(=O)Nc3nccs3)ccc2Oc2ccccc2)c2cc[nH]c2c1=O [Example 17, 3-(6-methyl-7-oxo-6,7-dihydro-1H-pyrrolo[2,3-c]pyridin-4-yl)-4-phenoxy-N-(1,3-thiazol-2-yl)benzamide] |
| 7.08 | 97 min | 20 min | 11 min |  |  | CCCS(=O)(=O)Nc1ccc(OC2CCOC2)c(-c2cn(C)c(=O)c3[nH]ccc23)c1 (stereo not shown) [Example 92, N-[3-(6-methyl-7-oxo-6,7-dihydro-1H-pyrrolo[2,3-c]pyridin-4-yl)-4-(tetrahydrofuran-3-yloxy)phenyl]propane-1-sulfonamide] |
| 6.62 | 49 min | 28 min | 51 min |  |  | CNS(=O)(=O)c1cnc(Nc2ccccc2)c(-c2cn(C)c(=O)c3[nH]ccc23)c1 [Example 112, N-methyl-5-(6-methyl-7-oxo-6,7-dihydro-1H-pyrrolo[2,3-c]pyridin-4-yl)-6-(phenylamino)pyridine-3-sulfonamide] |
| 7.88 | 54 min | 24 min | 48 min |  |  | CC1CC1COc1ccc(S(C)(=O)=O)cc1-c1cn(C)c(=O)c2[nH]ccc12 (stereo not shown) [Example 223, 6-methyl-4-{2-[(2-methylcyclopropyl)methoxy]-5-(methylsulfonyl)phenyl}-1,6-dihydro-7H-pyrrolo[2,3-c]pyridin-7-one] |
|  | 80 min | 55 min | 34 min | 7.65 | 7.78 | Cc1ncccc1Oc1ccc(S(C)(=O)=O)cc1-c1cn(C)c(=O)c2[nH]ccc12 [Example 179, 6-methyl-4-{2-[(2-methylpyridin-3-yl)oxy]-5-(methylsulfonyl)phenyl}-1,6-dihydro-7H-pyrrolo[2,3-c]pyridin-7-one] |
|  | 48 min | 8 min | 29 min | 7.67 | 8.22 | Cn1cc(-c2cc(S(C)(=O)=O)ccc2Oc2cc(F)cc(F)c2)c2cc[nH]c2c1=O [Example 176, 4-[2-(3,5-difluorophenoxy)-5-(methylsulfonyl)phenyl]-6-methyl-1,6-dihydro-7H-pyrrolo[2,3-c]pyridin-7-one] |
|  | 81 min | 4 min | 6 min | 5.80 | 5.89 | Cn1cc(-c2cc(CN3CCCC3)ccc2OCC2CC2)c2cc[nH]c2c1=O [Example 314, 4-[2-(cyclopropylmethoxy)-5-(pyrrolidin-1-ylmethyl)phenyl]-6-methyl-1,6-dihydro-7H-pyrrolo[2,3-c]pyridin-7-one] |
|  | > 120 min | > 120 min | > 120 min | < 4.89 | < 4.65 | Cn1cc(-c2ccccc2C(=O)N2CCOCC2)c2cc[nH]c2c1=O [Example 61, 6-methyl-4-[2-(morpholin-4-ylcarbonyl)phenyl]-1,6-dihydro-7H-pyrrolo[2,3-c]pyridin-7-one] |
|  | 11 min | 7 min | 2 min | 7.15 | 7.87 | Cn1cc(-c2cc(S(C)(=O)=O)ccc2Oc2cccc3ccncc23)c2cc[nH]c2c1=O [Example 193, 4-[2-(isoquinolin-8-yloxy)-5-(methylsulfonyl)phenyl]-6-methyl-1,6-dihydro-7H-pyrrolo[2,3-c]pyridin-7-one] |
|  | 38 min | 5 min | 16 min | 7.80 | 8.18 | Cn1cc(-c2cc(S(C)(=O)=O)ccc2Oc2cc(F)ccc2F)c2cc[nH]c2c1=O [Example 173, 4-[2-(2,5-difluorophenoxy)-5-(methylsulfonyl)phenyl]-6-methyl-1,6-dihydro-7H-pyrrolo[2,3-c]pyridin-7-one] |
|  | 40 min | 46 min | 14 min | 7.72 | 7.84 | Cn1cc(-c2cc(S(C)(=O)=O)ccc2Oc2ccc(F)c(F)c2)c2cc[nH]c2c1=O [Example 174, 4-[2-(3,4-difluorophenoxy)-5-(methylsulfonyl)phenyl]-6-methyl-1,6-dihydro-7H-pyrrolo[2,3-c]pyridin-7-one] |
|  | 57 min | > 120 min | > 120 min | 6.67 | 6.35 | Cn1cc(-c2cc(S(C)(=O)=O)ccc2OCCN2CCCC2=O)c2cc[nH]c2c1=O [Example 232, 6-methyl-4-{5-(methylsulfonyl)-2-[2-(2-oxopyrrolidin-1-yl)ethoxy]phenyl}-1,6-dihydro-7H-pyrrolo[2,3-c]pyridin-7-one] |
